What all share (format): in vivo
One data set relates to Galium spurium. The data set is described as follows: Test Example 4: herbicidal effect by soil treatment (symbol Q). In a few lines: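 Seeds were sown in sterilized diluvial soil, covered with about 1.5 cm of soil, and the soil surface was sprayed with a water-diluted emulsion of the compound at a predetermined rate. Plants grew in a greenhouse at 25° C. to 30° C.; effects were scored visually 3 weeks after application.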

For data set [1], the system named is Echinochloa crus-galli var. crus-galli. Description: Test Example 3: herbicidal effect by foliage application, Wagner pot (symbol H). The following applies: application herbicide amount 320 g/ha. In outline: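 Weeds and rice were sown in alluvial soil under 0.1–0.5 cm of standing water and grown for 14 days in a 25–30 °C greenhouse. An emulsion of the compound, diluted in water to a set dose, was sprayed evenly onto the foliage. Effect was scored against fixed criteria 3 weeks after treatment.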

In the next data set the test system is Veronica persica. Description: Test Example 5: herbicidal effect by foliage application, plastic box (symbol R). The following applies: 320 g/ha, 3 weeks after application. In outline:
(§1)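 Herbicide, formulated as an emulsion and diluted in water, is sprayed onto the aerial parts of 14-day seedlings. These were grown at 25° C. to 30° C. in sterilized diluvial soil; effects are graded after 3 weeks.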

Data set [2] has as its system directly sowed rice plant. Description: Test Example 3: effect on crop by foliage application, Wagner pot (symbol b). Conditions: application herbicide amount 320 g/ha. In a few lines:
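Greenhouse culture at 25–30 °C of seeded rice, Cyperus difformis, Leptochloa chinensis and Echinochloa crus-galli var. crus-galli, in alluvial soil held under 0.1–0.5 cm of water in a Wagner pot.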

The next data set deals with soybean. Description: Test Example 5: effect on crop by foliage application, plastic box (symbol d). Conditions: 320 g/ha, 3 weeks after application. In a few lines:
(§2)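 Seeds were sown in spots in sterilized diluvial soil held in a plastic box 21 cm × 13 cm × 7 cm deep, covered with about 1.5 cm of soil, and grown in a greenhouse at 25° C. to 30° C.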

In another data set the test system is Scirpus juncoides. Description: Test Example 2: herbicidal activity, application during weed generation in submerged conditions (symbol B). The following applies: Table 23; application herbicide amount 320 g/ha; grade 0-5 by criteria of Test Example 1. In a few lines:
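Alluvial soil in pots was flooded to a 4 cm water depth and sown with a mix of the three weed species, then grown in a greenhouse at 25° C. to 30° C. At the one- to two-leaf stage, an emulsifiable formulation diluted in water to a set dose was applied to the water surface. Effects were scored visually 3 weeks later.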

The test system of another data set is beet. Description: Test Example 4: effect on crop by soil treatment (symbol f). Conditions: for f: beet, effect grade on crop: 320 g/ha. In outline: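 Plants grew in a 25° C. to 30° C. greenhouse after spot-sowing of seeds, including beet, rapeseed, wheat and rice, into sterilized diluvial soil under roughly 1.5 cm of cover soil.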
The test system of the next data set is Avena fatua. The data set is described as follows: Test Example 5: herbicidal effect by foliage application, plastic box (symbol I). The following applies: 320 g/ha, 3 weeks after application. In a few lines: as §1
The subject of another data set is rapeseed. The data set is described as follows: Test Example 5: effect on crop by foliage application, plastic box (symbol g). Conditions: 320 g/ha, 3 weeks after application. In outline: as §2
For a further data set, the system named is Monochoria vaginalis. The data set is described as follows: Test Example 1: herbicidal activity, application before weed generation in submerged conditions (symbol C). Conditions: application herbicide amount 320 g/ha. In outline: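 Greenhouse growth at 25–30 °C lasted 3 weeks after treatment, when each weed was graded 0–5 by herbicidal ratio. Treatment was a diluted emulsion applied to the water surface of 4 cm-submerged alluvial soil on the sowing day.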

Setting [3] is: application herbicide amount 320 g/ha.

The values below come from US11000033B2, “Ketone or oxime compound, and herbicide” (NISSAN CHEMICAL CORPORATION, priority 2014, dated 2021).

With `CON=C(C)CC1CC(OC(=O)c2ccccc2)=C(c2c(C)cc(C)cc2C)C1=O` (stereo not drawn) [1-010], the “Q (Galium spurium) herbicidal effect grade” value with Galium spurium (setting [3]) is 2 (Herbicidal ratio of 20% or higher and lower than 40%). The “herbicidal effect on H (Echinochloa crus-galli var. crus-galli), grade 0-5” value (“herbicidal effect on H” for short) in data set [1] is 5 (Herbicidal ratio of 90% or more (almost completely withered)). In addition, in the data set with Veronica persica, the “R: Veronica persica, herbicidal effect grade” value is 4 (Herbicidal ratio of 70% or higher and lower than 90%). In [2], the “effect on crop b (directly sowed rice plant), grade 0-5” value (“effect on crop b” below) is on record as 5 (Herbicidal ratio of 90% or more (almost completely withered)). Moreover, the “d: soybean, effect on crop grade” value with soybean was 4 (Herbicidal ratio of 70% or higher and lower than 90%). In the data set with Scirpus juncoides, the “Herbicidal effect grade, B: Scirpus juncoides” value (from here on “Herbicidal effect grade, B”) is reported as 5 (Herbicidal ratio of 90% or more (almost completely withered)). Also, in the data set on beet (setting [3]), the “f (beet) effect on crop grade” value was 4 (Herbicidal ratio of 70% or higher and lower than 90%). Besides, the “I: Avena fatua, herbicidal effect grade” value in the data set with Avena fatua is on record as 5 (Herbicidal ratio of 90% or more (almost completely withered)). For the same compound, the “g: rapeseed, effect on crop grade” value in the data set on rapeseed was 4 (Herbicidal ratio of 70% or higher and lower than 90%). For the same compound, the “Herbicidal effect grade, C: Monochoria vaginalis” value (“Herbicidal effect grade, C” for short) in the data set on Monochoria vaginalis was 2 (Herbicidal ratio of 20% or higher and lower than 40%).

Regarding `CON=C(C)CC1CC(O)=C(c2c(C)cc(C#CCO)cc2C)C1=O` (mixture of isomers) [6-025], in the data set with Galium spurium (setting [3]), the “Q: Galium spurium, herbicidal effect grade” value (from here on “Q: Galium spurium”) was 0 (Herbicidal ratio of 5% or lower (almost no effect)). In [1], the “herbicidal effect on H” value is recorded as 5 (Herbicidal ratio of 90% or more (almost completely withered)). For the same compound, in the data set with Veronica persica, the “R: Veronica persica, herbicidal effect grade” value was 0 (Herbicidal ratio of 5% or lower (almost no effect)). Besides, the “effect on crop b” value in data set [2] is reported as 5 (Herbicidal ratio of 90% or more (almost completely withered)). Further, the “d: soybean, effect on crop grade” value in the data set on soybean is 0 (Herbicidal ratio of 5% or lower (almost no effect)). Also, the “Herbicidal effect grade, B” value with Scirpus juncoides is recorded as 0 (Herbicidal ratio of 5% or lower (almost no effect)). For the same compound, in the data set on beet (setting [3]), the “f: beet, effect on crop grade” value was 0 (Herbicidal ratio of 5% or lower (almost no effect)). Further, the “I: Avena fatua, herbicidal effect grade” value with Avena fatua is given as 5 (Herbicidal ratio of 90% or more (almost completely withered)). The “g: rapeseed, effect on crop grade” value in the data set with rapeseed is 3 (Herbicidal ratio of 40% or higher and lower than 70%). For the same compound, the “Herbicidal effect grade, C” value with Monochoria vaginalis is 0 (Herbicidal ratio of 5% or lower (almost no effect)).

For `CON=C(C)CC1CC(OC(=O)N2CCCCC2)=C(c2c(C)cc(C)cc2C)C1=O` (stereo not drawn) [1-151], in the data set with Galium spurium (320 g/ha), the “Q: Galium spurium” value is reported as 0 (Herbicidal ratio of 5% or lower (almost no effect)). Moreover, the “herbicidal effect on H” value in data set [1] is 4 (Herbicidal ratio of 70% or higher and lower than 90%). For the same compound, the “R: Veronica persica, herbicidal effect (criteria 0-5)” value (“R: Veronica persica … (criteria 0-5)” below) in the data set on Veronica persica was 1 (Herbicidal ratio of 5% or higher and lower than 20%). Besides, in [2], the “effect on crop b” value was 5 (Herbicidal ratio of 90% or more (almost completely withered)). Besides, the “d: soybean, effect on crop (criteria 0-5)” value (from here on “d: soybean … (criteria 0-5)”) in the data set on soybean was 2 (Herbicidal ratio of 20% or higher and lower than 40%). The “Herbicidal effect grade, B” value with Scirpus juncoides was 1 (Herbicidal ratio of 5% or higher and lower than 20%). Besides, the “f: beet, effect grade on crop” value with beet is 0 (Herbicidal ratio of 5% or lower (almost no effect)). In the data set with Avena fatua, the “I: Avena fatua, herbicidal effect (criteria 0-5)” value (“I: Avena fatua … (criteria 0-5)” below) is 5 (Herbicidal ratio of 90% or more (almost completely withered)). Besides, the “g: rapeseed, effect on crop (criteria 0-5)” value (“g: rapeseed … (criteria 0-5)” for short) in the data set on rapeseed was 4 (Herbicidal ratio of 70% or higher and lower than 90%). Further, the “Herbicidal effect grade, C” value in the data set with Monochoria vaginalis is on record as 0 (Herbicidal ratio of 5% or lower (almost no effect)).

With `CON=C(C)CC1CC(OC(=O)OCc2ccccc2)=C(c2c(C)cc(C)cc2C)C1=O` (stereo not drawn) [1-145], the “Q: Galium spurium” value in the data set on Galium spurium (320 g/ha) was 0 (Herbicidal ratio of 5% or lower (almost no effect)). Moreover, in [1], the “herbicidal effect on H” value was 5 (Herbicidal ratio of 90% or more (almost completely withered)). Further, the “R: Veronica persica … (criteria 0-5)” value in the data set with Veronica persica is 3 (Herbicidal ratio of 40% or higher and lower than 70%). For the same compound, the “effect on crop b” value in [2] was 5 (Herbicidal ratio of 90% or more (almost completely withered)). In addition, in the data set on soybean, the “d: soybean … (criteria 0-5)” value was 2 (Herbicidal ratio of 20% or higher and lower than 40%). In the data set on Scirpus juncoides, the “Herbicidal effect grade, B” value was 5 (Herbicidal ratio of 90% or more (almost completely withered)). Also, the “f: beet, effect grade on crop” value in the data set with beet was 0 (Herbicidal ratio of 5% or lower (almost no effect)). Further, in the data set on Avena fatua, the “I: Avena fatua … (criteria 0-5)” value is given as 5 (Herbicidal ratio of 90% or more (almost completely withered)). For the same compound, the “g: rapeseed … (criteria 0-5)” value in the data set on rapeseed is 4 (Herbicidal ratio of 70% or higher and lower than 90%). For the same compound, in the data set with Monochoria vaginalis, the “Herbicidal effect grade, C” value was 1 (Herbicidal ratio of 5% or higher and lower than 20%).

With `CCc1cc(Br)cc(C)c1C1=C(O)CC(CC(C)=NOC)C1=O` (stereo not drawn) [6-001], in the data set with Galium spurium (setting [3]), the “Q: Galium spurium” value is given as 0 (Herbicidal ratio of 5% or lower (almost no effect)). Besides, in [1], the “herbicidal effect on H” value is 5 (Herbicidal ratio of 90% or more (almost completely withered)). Besides, the “R: Veronica persica, herbicidal effect grade” value in the data set with Veronica persica is reported as 0 (Herbicidal ratio of 5% or lower (almost no effect)). In addition, the “effect on crop b” value in data set [2] is recorded as 5 (Herbicidal ratio of 90% or more (almost completely withered)). Besides, the “d: soybean, effect on crop grade” value in the data set on soybean is recorded as 0 (Herbicidal ratio of 5% or lower (almost no effect)). Besides, the “Herbicidal effect grade, B” value in the data set on Scirpus juncoides is 0 (Herbicidal ratio of 5% or lower (almost no effect)). Besides, the “f: beet, effect on crop grade” value with beet (setting [3]) is given as 0 (Herbicidal ratio of 5% or lower (almost no effect)). Also, the “I: Avena fatua, herbicidal effect grade” value with Avena fatua is 5 (Herbicidal ratio of 90% or more (almost completely withered)). For the same compound, the “g: rapeseed, effect on crop grade” value with rapeseed is 2 (Herbicidal ratio of 20% or higher and lower than 40%). Moreover, in the data set on Monochoria vaginalis, the “Herbicidal effect grade, C” value is reported as 0 (Herbicidal ratio of 5% or lower (almost no effect)).

As for `C=CCOC(=O)OC1=C(c2c(C)cc(C)cc2C)C(=O)C(CC(C)=NOC)C1` (stereo not drawn) [1-146], in the data set with Galium spurium (320 g/ha), the “Q: Galium spurium” value is 0 (Herbicidal ratio of 5% or lower (almost no effect)). Further, in data set [1], the “herbicidal effect on H” value is 5 (Herbicidal ratio of 90% or more (almost completely withered)). The “R: Veronica persica … (criteria 0-5)” value with Veronica persica was 3 (Herbicidal ratio of 40% or higher and lower than 70%). The “effect on crop b” value in data set [2] is reported as 5 (Herbicidal ratio of 90% or more (almost completely withered)). Moreover, the “d: soybean … (criteria 0-5)” value with soybean was 4 (Herbicidal ratio of 70% or higher and lower than 90%). The “Herbicidal effect grade, B” value in the data set with Scirpus juncoides is recorded as 5 (Herbicidal ratio of 90% or more (almost completely withered)). Moreover, the “f: beet, effect grade on crop” value in the data set with beet is 3 (Herbicidal ratio of 40% or higher and lower than 70%). Also, in the data set with Avena fatua, the “I: Avena fatua … (criteria 0-5)” value was 5 (Herbicidal ratio of 90% or more (almost completely withered)). Moreover, in the data set on rapeseed, the “g: rapeseed … (criteria 0-5)” value is on record as 5 (Herbicidal ratio of 90% or more (almost completely withered)). The “Herbicidal effect grade, C” value with Monochoria vaginalis is 1 (Herbicidal ratio of 5% or higher and lower than 20%).
